Patent US10633407B2, “14-membered ketolides and methods of their preparation and use” (President and Fellows of Harvard College, priority 2014, dated 2020)
Converted amounts (≈) assume the structure as drawn.

Tests used:
Assay in all cases: CLSI broth dilution MIC determination
Format in all cases: cell-based
A. baumannii ATCC 19606 = settings: A. baumannii ATCC 19606; Gram-negative
[1] = system: P. aeruginosa HPA101-1477; settings: Gram-negative
[2] = system: H. influenzae Erythro >4, Azithro 1; settings: H. influenzae Erythro >4, Azithro 1; Gram-negative
Excerpt: MIC data was collected for the novel macrolides that this platform has produced against over 21 unique strains of B. subtilis, E. coli, S. aureus, S. pneumoniae, and H. influenzae, including several multidrug-resistant strains, with a special focus on macrolide resistant mechanisms (vide supra). […] CLSI standard procedures for broth dilution MIC determination were used. […] These genotypes can be constitutive or inducible.

[3] = system: S. pyogenes Macrolide-resistant; settings: S. pyogenes Macrolide-resistant; Gram-positive
E. faecalis ATCC 29212 = settings: E. faecalis ATCC 29212; Gram-positive
P. aeruginosa ATCC 27853 = settings: P. aeruginosa ATCC 27853; Gram-negative
K. pneumoniae KPC-2 = settings: Gram-negative
[4] = system: A. baumannii chromosomal class C; settings: Gram-negative
S. pyogenes ATCC 19615 = settings: S. pyogenes ATCC 19615; Gram-positive
A. baumannii IMP-4 = settings: Gram-negative
[5] = system: A. baumannii imipenem-resistant; settings: Gram-negative
K. pneumoniae ATCC 10031 = settings: K. pneumoniae ATCC 10031; Gram-negative
K. pneumoniae SHV-12 = settings: Gram-negative
E. coli NDM-1 = settings: Gram-negative
In short: (§1)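 MICs measured following CLSI broth dilution methodology. The strains tested include macrolide-resistant and multidrug-resistant isolates whose resistance genotypes can be constitutive or inducible.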

K. pneumoniae TEM-10 = settings: Gram-negative
[6] = system: S. pneumoniae erm B + mef A genotype; settings: S. pneumoniae erm B + mef A genotype; Gram-positive
In short: as §1

[7] = system: S. pneumoniae mef A genotype (second strain so labelled); settings: Gram-positive
In short: as §1

S. aureus ATCC 29213 = settings: S. aureus ATCC 29213; Gram-positive
In short: as §1

S. aureus erm A genotype = settings: S. aureus erm A genotype; Gram-positive
In short: as §1

E. coli TEM-1 = settings: E. coli TEM-1; Gram-negative
In short: as §1

S. aureus USA600, GISA = settings: S. aureus USA600, GISA; Gram-positive
In short: as §1

E. coli ATCC 25922 = settings: E. coli ATCC 25922; Gram-negative
In short: as §1

E. coli CTX-M-14 = settings: Gram-negative
In short: as §1

H. influenzae ATCC49247 = settings: Gram-negative
In short: as §1

S. aureus MRSA: USA100 = settings: S. aureus MRSA: USA100; Gram-positive
In short: as §1

S. aureus MRSA: USA300 = settings: S. aureus MRSA: USA300; Gram-positive
In short: as §1

S. pneumoniae ATCC 49619 = settings: S. pneumoniae ATCC 49619; Gram-positive
In short: as §1

[8] = system: E. faecalis Vancomycin-resistant; settings: E. faecalis Vancomycin-resistant; Gram-positive

Row | Structure (SMILES) | MIC (A. baumannii ATCC 19606) [µg/mL] | MIC [1] [µg/mL] | MIC [2] [µg/mL] | MIC [3] [µg/mL] | MIC (E. faecalis ATCC 29212) [µg/mL] | MIC (P. aeruginosa ATCC 27853) [µg/mL] | MIC (K. pneumoniae KPC-2) [µg/mL] | MIC [4] [µg/mL] | MIC (S. pyogenes ATCC 19615) [µg/mL] | MIC (A. baumannii IMP-4) [µg/mL] | MIC [5] [µg/mL] | MIC (K. pneumoniae ATCC 10031) [µg/mL] | MIC (K. pneumoniae SHV-12) [µg/mL] | MIC (E. coli NDM-1) [µg/mL] | MIC (K. pneumoniae TEM-10) [µg/mL] | MIC [6] [µg/mL] | MIC [7] [µg/mL] | MIC (S. aureus ATCC 29213) [µg/mL] | MIC (S. aureus erm A genotype) [µg/mL] | MIC (E. coli TEM-1) [µg/mL] | further results
1 | CC[C@H]1OC(=O)[C@H](C)C(=O)[C@H](C)[C@@H](O[C@@H]2OC(C)CC(N(C)C)C2O)[C@](C)(OC)C[C@@H](C)C(=O)[C@H](C)[C@H]2N(C/C=C/Cn3cc(-c4ccccn4)nn3)C(=O)O[C@]12C (stereo partly drawn) [FSM-100341] | 16 (≈ 19.7 µM) | > 32 | 1 (≈ 1.23 µM) | < 0.0312 | < 0.0312 | > 32 | > 32 | 32 (≈ 39.5 µM) | < 0.0312 | > 32 | 16 (≈ 19.7 µM) | 8 (≈ 9.86 µM) | > 32 | > 32 | 32 (≈ 39.5 µM) | 0.25 | < 0.0312 | < 0.0312 | > 32 | 32 (≈ 39.5 µM) | MIC (S. aureus USA600, GISA): > 32 µg/mL; MIC (E. coli ATCC 25922): > 32 µg/mL; MIC (E. coli CTX-M-14): > 32 µg/mL; MIC (H. influenzae ATCC49247): 1 µg/mL (≈ 1.23 µM); MIC (S. aureus MRSA: USA100): > 32 µg/mL; MIC (S. aureus MRSA: USA300): 2 µg/mL (≈ 2.47 µM); MIC (S. pneumoniae ATCC 49619): < 0.0312 µg/mL; MIC [8]: > 32 µg/mL
2 | CC[C@H]1OC(=O)[C@@](C)(F)C(=O)[C@H](C)[C@@H](O[C@@H]2OC(C)CC(N(C)C)C2O)[C@](C)(OC)C[C@@H](C)C(=O)[C@H](C)[C@H]2N(C/C=C/Cn3nnc(-c4ccccn4)n3)C(=O)O[C@]12C (stereo partly drawn) [FSM-100389] | 16 (≈ 19.3 µM) | > 32 | 1 (≈ 1.2 µM) | < 0.0312 | < 0.0312 | > 32 | > 32 | 32 (≈ 38.6 µM) | < 0.0312 | > 32 | 16 (≈ 19.3 µM) | 4 (≈ 4.82 µM) | > 32 | > 32 | > 32 | 0.0625 | < 0.0312 | < 0.0312 | > 32 | 32 (≈ 38.6 µM) | MIC (S. aureus USA600, GISA): > 32 µg/mL; MIC (E. coli ATCC 25922): 32 µg/mL (≈ 38.6 µM); MIC (E. coli CTX-M-14): > 32 µg/mL; MIC (H. influenzae ATCC49247): 1 µg/mL (≈ 1.2 µM); MIC (S. aureus MRSA: USA100): > 32 µg/mL; MIC (S. aureus MRSA: USA300): 2 µg/mL (≈ 2.41 µM); MIC (S. pneumoniae ATCC 49619): < 0.0312 µg/mL; MIC [8]: > 32 µg/mL
3 | CC[C@H]1OC(=O)[C@H](C)C(=O)[C@H](C)[C@@H](O[C@@H]2OC(C)CC(N(C)C)C2O)[C@](C)(OC)C[C@@H](C)C(=O)[C@H](C)[C@H]2N(CC3CC3Cn3cc(-c4cccc(N)c4)nn3)C(=O)O[C@]12C (stereo partly drawn) [FSM-100429] | > 32 | > 32 | > 32 | < 0.0312 | < 0.0312 | > 32 | > 32 | 32 (≈ 38.1 µM) | < 0.0312 | > 32 | 32 (≈ 38.1 µM) | 32 (≈ 38.1 µM) | > 32 | > 32 | > 32 | > 32 | 0.0625 (≈ 0.0745 µM) | 0.125 (≈ 0.149 µM) | > 32 | > 32 | MIC (S. aureus USA600, GISA): > 32 µg/mL; MIC (E. coli ATCC 25922): > 32 µg/mL; MIC (E. coli CTX-M-14): > 32 µg/mL; MIC (H. influenzae ATCC49247): > 32 µg/mL; MIC (S. aureus MRSA: USA100): > 32 µg/mL; MIC (S. aureus MRSA: USA300): > 32 µg/mL; MIC (S. pneumoniae ATCC 49619): < 0.0312 µg/mL; MIC [8]: > 32 µg/mL
